Laboratory results: patent US10273233B2, “Inhibitors of influenza viruses replication” (Vertex Pharmaceuticals Incorporated, priority 2015, dated 2019)
Counter-ions that a name gives are not always drawn. Like-named read-outs stand apart in the source and are kept apart here.

Assays:
influenza A = assay: Influenza A mouse model, Compound (1) with or without oseltamivir; assay type: in vivo, Mice
Procedure: Referring to FIG. 32, the potential for a positive therapeutic interaction between Compound (1) and oseltamivir against influenza A was explored in the mouse model. Mice were challenged with influenza A and dosed with vehicle (10 mL/kg 0.5% MC) or Compound (1) at 1, 3, 10, or 30 mg/kg BID alone, or in combination with 10 mg/kg BID oseltamivir. Therapy was started 48 hours post influenza A infection and continued for 10 days. All of the vehicle-treated controls succumbed to disease by study day 8 (Table 21).

CC(C)(C)[C@@H](CC(=O)O)Nc1nc(-c2c[nH]c3ncc(F)cc23)ncc1F [HCl Salt]
Final Form (SGF (pH --1.5), 5 min): Amorphous | concentration, two-stage in vitro dissolution (SGF (pH --1.5), 5 min): 14.664 | Final Form (SGF (pH --1.5), 15 min): Amorphous | concentration, two-stage in vitro dissolution (SGF (pH --1.5), 15 min): 16.565 | Final Form (SGF (pH --1.5), 30 min): Amorphous | concentration, two-stage in vitro dissolution (SGF (pH --1.5), 30 min): 14.808 | Final Form (SGF (pH --1.5), 60 min): Amorphous | concentration, two-stage in vitro dissolution (SGF (pH --1.5), 60 min): 15.135 | Final Form (SIF (no pH Adjustment), 75 min): H2 | concentration, two-stage in vitro dissolution (SIF (no pH Adjustment), 75 min): 0.747 | Final Form (SIF (no pH Adjustment), 90 min): H2 | concentration, two-stage in vitro dissolution (SIF (no pH Adjustment), 90 min): 0.964 | Final Form (SIF (pH --6.4), 105 min): H2 | concentration, two-stage in vitro dissolution (SIF (pH --6.4), 105 min): 0.474 | Final Form (SIF (pH --6.4), 120 min): H2 | concentration, two-stage in vitro dissolution (SIF (pH --6.4), 120 min): 0.477 | Final Form (SIF (pH --6.4), 150 min): H2 | concentration, two-stage in vitro dissolution (SIF (pH --6.4), 150 min): 0.749 | Final Form (SIF (pH --6.4), 180 min): H2 | concentration, two-stage in vitro dissolution (SIF (pH --6.4), 180 min): 0.340 | Final Form (SIF (pH --6.4), 240 min): H2 | concentration, two-stage in vitro dissolution (SIF (pH --6.4), 240 min): 0.395

CCOC(=O)C1=C[C@@H](OC(CC)CC)[C@H](NC(C)=O)[C@@H](N)C1 [Oseltamivir, oseltamivir, reference compound]
Percent Survival (influenza A; Oseltamivir 10 mg/kg BID alone, started +48 hours after infection, 10 days): 0% | protection from mortality (influenza A; administered alone: Compound (1) 1 mg/kg BID, oseltamivir 10 mg/kg): failed to protect mice from influenza infection

CC(C)(C)[C@@H](CC(=O)O)Nc1nc(-c2c[nH]c3ncc(F)cc23)ncc1F [FF Lot 7]
Final Form (SGF (pH --1.5), 5 min): H3 | concentration, two-stage in vitro dissolution (SGF (pH --1.5), 5 min): 2.053 | Final Form (SGF (pH --1.5), 15 min): H3 | concentration, two-stage in vitro dissolution (SGF (pH --1.5), 15 min): 1.278 | Final Form (SGF (pH --1.5), 30 min): H3 | concentration, two-stage in vitro dissolution (SGF (pH --1.5), 30 min): 2.031 | Final Form (SGF (pH --1.5), 60 min): H3 | concentration, two-stage in vitro dissolution (SGF (pH --1.5), 60 min): 2.40 | Final Form (SIF (no pH Adjustment), 75 min): H3 | concentration, two-stage in vitro dissolution (SIF (no pH Adjustment), 75 min): 0.163 | Final Form (SIF (no pH Adjustment), 90 min): H3 | concentration, two-stage in vitro dissolution (SIF (no pH Adjustment), 90 min): 0.148 | Final Form (SIF (pH --6.4), 105 min): H3 | concentration, two-stage in vitro dissolution (SIF (pH --6.4), 105 min): 1.588 | Final Form (SIF (pH --6.4), 120 min): H3 | concentration, two-stage in vitro dissolution (SIF (pH --6.4), 120 min): 1.534 | Final Form (SIF (pH --6.4), 150 min): H3 | concentration, two-stage in vitro dissolution (SIF (pH --6.4), 150 min): 1.058 | Final Form (SIF (pH --6.4), 180 min): H3 | concentration, two-stage in vitro dissolution (SIF (pH --6.4), 180 min): 0.971 | Final Form (SIF (pH --6.4), 240 min): H3 | concentration, two-stage in vitro dissolution (SIF (pH --6.4), 240 min): 1.497

CC(C)(C)[C@@H](CC(=O)O)Nc1nc(-c2c[nH]c3ncc(F)cc23)ncc1F [H2SO4 Salt]
Final Form (SGF (pH --1.5), 5 min): H2SO4 | concentration, two-stage in vitro dissolution (SGF (pH --1.5), 5 min): 0.407 | Final Form (SGF (pH --1.5), 15 min): H2SO4 | concentration, two-stage in vitro dissolution (SGF (pH --1.5), 15 min): 0.407 | Final Form (SGF (pH --1.5), 30 min): H2SO4 | concentration, two-stage in vitro dissolution (SGF (pH --1.5), 30 min): 0.417 | Final Form (SGF (pH --1.5), 60 min): H2SO4 | concentration, two-stage in vitro dissolution (SGF (pH --1.5), 60 min): 0.399 | Final Form (SIF (no pH Adjustment), 75 min): H2 | concentration, two-stage in vitro dissolution (SIF (no pH Adjustment), 75 min): 0.242 | Final Form (SIF (no pH Adjustment), 90 min): H2 | concentration, two-stage in vitro dissolution (SIF (no pH Adjustment), 90 min): 0.236 | Final Form (SIF (pH --6.4), 105 min): H2 | concentration, two-stage in vitro dissolution (SIF (pH --6.4), 105 min): 1.373 | Final Form (SIF (pH --6.4), 120 min): H2 | concentration, two-stage in vitro dissolution (SIF (pH --6.4), 120 min): 1.284 | Final Form (SIF (pH --6.4), 150 min): H2 | concentration, two-stage in vitro dissolution (SIF (pH --6.4), 150 min): 0.396 | Final Form (SIF (pH --6.4), 180 min): H2 | concentration, two-stage in vitro dissolution (SIF (pH --6.4), 180 min): 0.652 | Final Form (SIF (pH --6.4), 240 min): H2 | concentration, two-stage in vitro dissolution (SIF (pH --6.4), 240 min): 0.789
